Laboratory results taken from ChEMBL document CHEMBL1201862, “PubChem BioAssay data set” (2004).
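Where inhibition never reached the appropriate level, the endpoint shown equals the highest concentration tested. Otherwise, values were interpolated linearly from a five-concentration, 48-hour dose response in 96-well plates. At the GI50, growth is halved.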 The source made the active and inactive calls. Cut-off read from the data, not from the text of the source: active = GI50 up to about 1.1 µM and inactive = higher.

How the values were obtained:
Test in all cases: NCI-60 cell line screen, 48 h
SW-620 = tested on: SW-620
SNB-75 = tested on: SNB-75
RXF 393 = tested on: RXF 393
DU-145 = tested on: DU-145
A498 = tested on: A498
OVCAR-4 = tested on: OVCAR-4
HCC 2998 = tested on: HCC 2998
HCT-116 = tested on: HCT-116
EKVX = tested on: EKVX
A549 = tested on: A549
UACC-257 = tested on: UACC-257
K562 = tested on: K562
NCI-H460 = tested on: NCI-H460
M14 = tested on: M14
OVCAR-5 = tested on: OVCAR-5
LOX IMVI = tested on: LOX IMVI
SR = tested on: SR
SK-MEL-5 = tested on: SK-MEL-5
MOLT-4 = tested on: MOLT-4
CAKI-1 = tested on: CAKI-1

SMILES | GI50 (SW-620) | GI50 (SNB-75) | GI50 (RXF 393) | GI50 (DU-145) | GI50 (A498) | GI50 (OVCAR-4) | GI50 (HCC 2998) | GI50 (HCT-116) | GI50 (EKVX) | GI50 (A549) | GI50 (UACC-257) | GI50 (K562) | GI50 (NCI-H460) | GI50 (M14) | GI50 (OVCAR-5) | GI50 (LOX IMVI) | GI50 (SR) | GI50 (SK-MEL-5) | GI50 (MOLT-4) | GI50 (CAKI-1)
Cc1c(Cl)nc(Cl)nc1Cl | 1.27 µM (inactive) | 5.68 µM (inactive) | 1.87 µM (inactive) | 3.63 µM (inactive) | 3.8 µM (inactive) | 1.46 µM (inactive) | 1.2 µM (inactive) | 1.14 µM (inactive) | 1.9 µM (inactive) | 2.69 µM (inactive) | 2.3 µM (inactive) | 0.6 µM (active) | 5.71 µM (inactive) | 0.857 µM (active) | 1.88 µM (inactive) | 0.373 µM (active) | 0.434 µM (active) | 2.16 µM (inactive) | 0.321 µM (active) | 0.273 µM (active)
COc1cc(/C=C/C(=O)Oc2ccc(NC(C)=O)cc2)ccc1C(=O)OCc1ccccc1 | > 100 µM (inactive) | 20 µM (inactive) | 28.8 µM (inactive) | > 77.3 µM (inactive) | 60.3 µM (inactive) | > 96.4 µM (inactive) | > 100 µM (inactive) | > 100 µM (inactive) | > 100 µM (inactive) | > 97.1 µM (inactive) | > 100 µM (inactive) | > 100 µM (inactive) | > 73.1 µM (inactive) | > 100 µM (inactive) | > 100 µM (inactive) | 67.8 µM (inactive) | > 100 µM (inactive) | > 100 µM (inactive) | > 85.3 µM (inactive) | > 93.3 µM (inactive)
CN1COCc2c1ccc1cc3ccc4c(c3nc21)COCN4S(C)(=O)=O | > 100 µM (inactive) | 20 µM (inactive) | > 100 µM (inactive) | > 100 µM (inactive) | > 100 µM (inactive) | > 100 µM (inactive) | > 100 µM (inactive) | > 100 µM (inactive) | 78 µM (inactive) | > 100 µM (inactive) | > 100 µM (inactive) | > 100 µM (inactive) | > 100 µM (inactive) | > 100 µM (inactive) | > 100 µM (inactive) | > 100 µM (inactive) | 3.73 µM (inactive) | > 100 µM (inactive) | > 100 µM (inactive) | > 100 µM (inactive)
[N-]=[N+]=NCc1nc(N)c2c3c(sc2n1)CCCC3 | 6.85 µM (inactive) | 7.69 µM (inactive) | 5.4 µM (inactive) | 3.13 µM (inactive) | 10.9 µM (inactive) | 0.631 µM (active) | 1.84 µM (inactive) | 2.52 µM (inactive) | 2.1 µM (inactive) | 3.27 µM (inactive) | 4.22 µM (inactive) | 4.22 µM (inactive) | 3.43 µM (inactive) | 3.46 µM (inactive) | 3.64 µM (inactive) | 0.272 µM (active) | 4.99 µM (inactive) | 1.36 µM (inactive) | 3.29 µM (inactive) | 1.56 µM (inactive)
CN(C)c1nc2sc3c(c2c(=O)o1)CCCC3 | 54.8 µM (inactive) | 30.1 µM (inactive) | 15.5 µM (inactive) | 27.8 µM (inactive) | 16 µM (inactive) | 27.9 µM (inactive) | > 100 µM (inactive) | 44.9 µM (inactive) | 25.5 µM (inactive) | 29.2 µM (inactive) | 73.8 µM (inactive) | 32.4 µM (inactive) | 44.5 µM (inactive) | 40.1 µM (inactive) | 60.1 µM (inactive) | 52 µM (inactive) | 65.2 µM (inactive) | 23.8 µM (inactive) | 52.2 µM (inactive) | 35.3 µM (inactive)
CC1CCC2(CC1)NC1=C(CC(C)CC1)C1=C2CC(C)CC1 (stereo unspecified) | 18.9 µM (inactive) | 19.1 µM (inactive) | 15.8 µM (inactive) | 38.3 µM (inactive) | 34 µM (inactive) | 22.2 µM (inactive) | 18.6 µM (inactive) | 14.8 µM (inactive) | 39.1 µM (inactive) | 36.8 µM (inactive) | 25.3 µM (inactive) | 17.2 µM (inactive) | 23.8 µM (inactive) | 18.5 µM (inactive) | 18.7 µM (inactive) | 18.3 µM (inactive) | 21.8 µM (inactive) | 12.1 µM (inactive) | 7.14 µM (inactive) | 22 µM (inactive)
O=C(Cc1csc2[n+]1C(=O)/C(=C/c1ccc(Cl)cc1)S2)Nc1ccccc1 | 26.4 µM (inactive) | 23.5 µM (inactive) | 18.3 µM (inactive) | 31.4 µM (inactive) | 15.7 µM (inactive) | 30.3 µM (inactive) | 19.6 µM (inactive) | 16.8 µM (inactive) | 16.3 µM (inactive) | 24.1 µM (inactive) | 19.2 µM (inactive) | 21.7 µM (inactive) | 18.7 µM (inactive) | 28.1 µM (inactive) | 22.5 µM (inactive) | 16.2 µM (inactive) | 24.3 µM (inactive) | 10.9 µM (inactive) |  | 28.1 µM (inactive)
CCSc1ncnc2c(C3OC(CO)C(O)C3O)nsc12 (stereo unspecified) | > 100 µM (inactive) | > 100 µM (inactive) | > 100 µM (inactive) | > 100 µM (inactive) | > 100 µM (inactive) | > 100 µM (inactive) | 99.1 µM (inactive) | > 100 µM (inactive) | > 100 µM (inactive) | > 100 µM (inactive) |  | > 100 µM (inactive) |  | > 100 µM (inactive) | > 100 µM (inactive) | > 100 µM (inactive) | > 100 µM (inactive) | > 100 µM (inactive) | > 100 µM (inactive) | > 100 µM (inactive)
Cc1ccc2c(c1)/C(=N/Nc1ccccc1[N+](=O)[O-])C(=O)N2 | 35.3 µM (inactive) | 5.33 µM (inactive) | 6.52 µM (inactive) | 25 µM (inactive) | 4.18 µM (inactive) | 2.37 µM (inactive) | > 100 µM (inactive) | 3.01 µM (inactive) | 2.65 µM (inactive) | 27.9 µM (inactive) | 13.9 µM (inactive) | 27.9 µM (inactive) | 3.89 µM (inactive) | 81.5 µM (inactive) | 10.9 µM (inactive) | 4.36 µM (inactive) | 4.06 µM (inactive) | 7.35 µM (inactive) | > 100 µM (inactive) | 3.32 µM (inactive)
C=C[C@H]1CN2CCc3c([nH]c4c([C@@H]5CCCN5C)c(O)ccc34)[C@@H]2C[C@@H]1C[C@H]1c2[nH]c3ccccc3c2CCN1C | 1.23 µM (inactive) | 0.813 µM (active) | 0.215 µM (active) | 1.48 µM (inactive) | 1.63 µM (inactive) | 1.42 µM (inactive) | 0.177 µM (active) | 0.239 µM (active) | 1.58 µM (inactive) | 0.764 µM (active) | 3.18 µM (inactive) | 0.255 µM (active) | 1.49 µM (inactive) | 0.307 µM (active) | 1.85 µM (inactive) | 0.179 µM (active) | 0.253 µM (active) | 1.66 µM (inactive) | 0.316 µM (active) | 1.61 µM (inactive)
CCOP(=O)(CCCC(O)CNc1nc(N)nc(Cl)c1/N=N/c1ccc(Cl)cc1)OCC (stereo unspecified) | 12.3 µM (inactive) | 3.29 µM (inactive) | 5.24 µM (inactive) | 6.14 µM (inactive) | 6.7 µM (inactive) | 4.45 µM (inactive) | 15.4 µM (inactive) | 8.28 µM (inactive) | 3.63 µM (inactive) | 10.6 µM (inactive) | 5.38 µM (inactive) | 4.63 µM (inactive) | 11.1 µM (inactive) |  | 10.9 µM (inactive) | 3.75 µM (inactive) | 2.64 µM (inactive) | 4.66 µM (inactive) | 3.24 µM (inactive) | 3.02 µM (inactive)
CC(=O)NC(C)(C)C1CC=C(C)CC1 (stereo unspecified) | > 100 µM (inactive) | > 100 µM (inactive) | > 100 µM (inactive) | > 100 µM (inactive) | > 100 µM (inactive) | > 100 µM (inactive) | > 100 µM (inactive) | > 100 µM (inactive) | > 100 µM (inactive) | > 100 µM (inactive) | > 100 µM (inactive) | > 100 µM (inactive) | > 100 µM (inactive) | > 100 µM (inactive) | > 100 µM (inactive) | > 100 µM (inactive) | > 100 µM (inactive) | > 100 µM (inactive) | > 100 µM (inactive) | > 100 µM (inactive)
O=C(NCCNCCCNC(=O)c1cc(-c2ccccc2)nc2ccccc12)c1cccc(OCc2ccccc2)c1OCc1ccccc1 | 1.77 µM (inactive) | 1.87 µM (inactive) | 2.13 µM (inactive) | 1.81 µM (inactive) | 1.6 µM (inactive) | 1.64 µM (inactive) | 1.26 µM (inactive) | 1.71 µM (inactive) | 1.69 µM (inactive) | 1.74 µM (inactive) | 1.83 µM (inactive) | 1.74 µM (inactive) | 2.13 µM (inactive) | 1.65 µM (inactive) | 1.91 µM (inactive) | 1.57 µM (inactive) | 0.889 µM (active) | 1.71 µM (inactive) | 1.85 µM (inactive) | 1.61 µM (inactive)
Cn1nc(C(=O)N2CC(CCl)c3c2cc(N)c2ccccc32)cc1NC(=O)Nc1cc(C(=O)N2CC(CCl)c3c2cc(N)c2ccccc32)nn1C (stereo unspecified) | 0.0271 µM (active) | 0.0185 µM (active) | 0.0447 µM (active) | 0.0116 µM (active) | 8.69 µM (inactive) | 0.449 µM (active) | 1.21 µM (inactive) | 0.0818 µM (active) | 29 µM (inactive) | 0.499 µM (active) | 0.521 µM (active) | 0.231 µM (active) | < 0.01 µM (active) | 0.349 µM (active) | 0.301 µM (active) | < 0.01 µM (active) | < 0.01 µM (active) | 0.192 µM (active) | < 0.01 µM (active) | 0.254 µM (active)
